Tested on: Alternaria solani
Test: Activity against early blight of tomato caused by Alternaria solani (protective spray, potted tomato plants)
Type: in vivo
Settings: individual active compound, tomato leaves, evaluated after 5 days
Procedure: The active compounds were prepared separately as a stock solution comprising 0.25% by weight of active compound in acetone or DMSO. 1% by weight of the emulsifier Uniperol® EL (wetting agent having emulsifying and dispersing action based on ethoxylated alkylphenols) was added to this solution, and the mixture was diluted with water to the desired concentration.
Leaves of potted plants of the cultivar “Groβe Fleischtomate St. Pierre” were sprayed to runoff point with an aqueous suspension having the concentration of active compounds stated below. The next day, the leaves were infected with an aqueous […] suspension of Alternaria solani in 2% biomalt solution having a density of 0.17×10^6 spores/ml. The plants were then placed in a water-vapor-saturated chamber at temperatures of between 20 and 22 C. After 5 days, the infection on the leaves of the untreated, but infected control plants had developed to such an extent that the infection could be determined visually in %.
Evaluation was carried out by determining the infected leaf area in per cent. These percentages were converted into efficacies.
The efficacy (E) is calculated as follows using Abbot's formula: E=(1−α/β)·100 • α corresponds to the fungal infection of the treated plants in % and • β corresponds to the fungal infection of the untreated (control) plants in %
An efficacy of 0 means that the infection level of the treated plants corresponds to that of the untreated control plants; an efficacy of 100 means that the treated plants were not infected. […]

Row | Compound | Efficacy in % of the untreated control (8 ppm in the spray liquor) | Efficacy in % of the untreated control (16 ppm in the spray liquor) | Efficacy in % of the untreated control (31 ppm in the spray liquor) | Efficacy in % of the untreated control (63 ppm in the spray liquor)
1 | N#Cc1sc2c(=O)c3ccccc3c(=O)c=2sc1C#N [I, dithianon] | 0% | 0% | 27% | 63%
2 | O=C(Nc1ccccc1-c1ccc(Cl)cc1)c1cccnc1Cl [II-1, boscalid] | 63% | 76% | 82% | 88%
3 | O=C(Nc1ccccc1-c1ccc(F)cc1)c1cccnc1Cl [II-2] | 27% | 39% | 27% | 88%

Reference: patent US7238362B2, “Dithianon-based fungicidal mixtures” (BASF Aktiengesellschaft, priority 2002, dated 2007)
